Source: US20240116985A1, “STAPLED PEPTIDES AND METHODS THEREOF” (priority 2020, published 2024)

Assay: CHI Log D procedure
Type: physicochemical
Conditions: for chromatographic logD: pH 7.4, CHI Log D; for CHI Log D: pH 7.4

Row | chromatographic logD | CHI Log D | Structure (SMILES)
1 | – | 1.686 | CC[C@H](C)[C@H](NC(=O)[C@H](CC(=O)O)NC(=O)[C@H](C)NC(C)=O)C(=O)N[C@]1(C)CCN(C)C(=O)OCC=CCCCCC[C@@](C)(C(=O)N[C@@H](Cc2ccccc2)C(=O)N[C@@H](Cc2c[nH]c3ccccc23)C(=O)N[C@@H](Cc2c[nH]cn2)C(N)=O)NC(=O)[C@H](CCC(N)=O)NC(=O)[C@H](Cc2ccccc2)NC(=O)[C@H](C)NC(=O)[C@H](C)NC(=O)[C@H](CCC(C)C)NC(=O)[C@H](CC(=O)O)NC1=O (single isomer, unassigned) [I-71, Ac-Ala-Asp-Ile-RdN-Asp-hLeu-Ala-Ala-Phe-Gln-S7-Phe-Trp-His-NH2]
2 | 1.72 | – | CC[C@H](C)[C@H](NC(=O)[C@H](CC(=O)O)NC(=O)[C@H](C)NC(C)=O)C(=O)N[C@]1(C)CCN(C)C(=O)OCC=CCCCCC[C@@](C)(C(=O)N[C@@H](Cc2ccccc2)C(=O)N[C@@H](Cc2c[nH]c3ccccc23)C(=O)N[C@@H](Cc2c[nH]cn2)C(N)=O)NC(=O)[C@H](CCC(N)=O)NC(=O)[C@H](Cc2ccccc2)NC(=O)[C@H](C)NC(=O)[C@H](C)NC(=O)[C@H](CC2CCCCC2)NC(=O)[C@H](CC(=O)O)NC1=O (single isomer, unassigned) [I-72, Ac-Ala-Asp-Ile-RdN-Asp-Cha-Ala-Ala-Phe-Gln-S7-Phe-Trp-His-NH2]
3 | – | 1.723 | CC[C@H](C)[C@H](NC(=O)[C@H](CC(=O)O)NC(=O)[C@H](C)NC(C)=O)C(=O)N[C@]1(C)CCN(C)C(=O)OCC=CCCCCC[C@@](C)(C(=O)N[C@@H](Cc2ccccc2)C(=O)N[C@@H](Cc2c[nH]c3ccccc23)C(=O)N[C@@H](Cc2c[nH]cn2)C(N)=O)NC(=O)[C@H](CCC(N)=O)NC(=O)[C@H](Cc2ccccc2)NC(=O)[C@H](C)NC(=O)[C@H](C)NC(=O)[C@H](CC2CCCCC2)NC(=O)[C@H](CC(=O)O)NC1=O (single isomer, unassigned) [I-73, Ac-Ala-Asp-Ile-RdN-Asp-Cha-Ala-Ala-Phe-Gln-S7-Phe-Trp-His-NH2]
4 | 1.33 | – | CC(=O)N[C@@H](Cc1ccccc1)C(=O)N[C@@H](CC(=O)O)C(=O)N[C@@H](C)C(=O)N[C@]1(C)CCCCCCC=CCOC(=O)N2CC[C@@](C(=O)N[C@@H](Cc3ccccc3)C(=O)N[C@@H](Cc3c[nH]c4ccccc34)C(=O)N[C@@H](CCC(N)=O)C(N)=O)(C2)NC(=O)[C@H](C(C)C)NC(=O)[C@H](CC2CCCCC2)NC(=O)[C@H](C)NC(=O)[C@H](C)NC(=O)[C@H](CC(=O)O)NC(=O)[C@H](CC(=O)O)NC1=O (single isomer, unassigned) [I-74, Ac-Phe-Asp-Ala-R8-Asp-Asp-Ala-Ala-Cha-Val-PyrS-Phe-Trp-Gln-NH2]
5 | – | 1.376 | CC(=O)N[C@@H](Cc1ccccc1)C(=O)N[C@@H](CC(=O)O)C(=O)N[C@@H](C)C(=O)N[C@]1(C)CCCCCCC=CCOC(=O)N2CC[C@@](C(=O)N[C@@H](Cc3ccccc3)C(=O)N[C@@H](Cc3c[nH]c4ccccc34)C(=O)N[C@@H](CCC(N)=O)C(N)=O)(C2)NC(=O)[C@H](C(C)C)NC(=O)[C@H](CC2CCCCC2)NC(=O)[C@H](C)NC(=O)[C@H](C)NC(=O)[C@H](CC(=O)O)NC(=O)[C@H](CC(=O)O)NC1=O (single isomer, unassigned) [I-75, Ac-Phe-Asp-Ala-R8-Asp-Asp-Ala-Ala-Cha-Val-PyrS-Phe-Trp-Gln-NH2]

The remaining lines, values behind:

Row | Structure (SMILES) | chromatographic logD | CHI Log D
6 | CC(=O)N[C@@H](Cc1ccccc1)C(=O)N[C@@H](CC(=O)O)C(=O)N[C@]1(C)CCCCCCC=CCCC[C@@](C)(C(=O)N[C@@H](C)C(=O)N[C@@H](Cc2ccccc2)C(=O)N[C@@H](Cc2c[nH]c3ccccc23)C(=O)N[C@@H](CCC(N)=O)C(N)=O)NC(=O)[C@H](Cc2ccccc2)NC(=O)[C@H](C)NC(=O)[C@H](C)NC(=O)[C@H](CC(=O)O)NC(=O)[C@H](CC(=O)O)NC(=O)[C@H](C)NC1=O (single isomer, unassigned) [I-47, Ac-Phe-Asp-R8-Ala-Asp-Asp-Ala-Ala-Phe-S5-Ala-Phe-Trp-Gln-NH2] | 1.28 | –
7 | CC(=O)N[C@@H](Cc1ccccc1)C(=O)N[C@@H](CC(=O)O)C(=O)N[C@]1(C)CCCCCCC=CCCC[C@@](C)(C(=O)N[C@@H](C)C(=O)N[C@@H](Cc2ccccc2)C(=O)N[C@@H](Cc2c[nH]c3ccccc23)C(=O)N[C@@H](CCC(N)=O)C(N)=O)NC(=O)[C@H](Cc2ccccc2)NC(=O)[C@H](C)NC(=O)[C@H](C)NC(=O)[C@H](CC(=O)O)NC(=O)[C@H](CC(=O)O)NC(=O)[C@H](C)NC1=O (single isomer, unassigned) [I-48, Ac-Phe-Asp-R8-Ala-Asp-Asp-Ala-Ala-Phe-S5-Ala-Phe-Trp-Gln-NH2] | – | 1.37
8 | CC(=O)N[C@@H](Cc1ccccc1)C(=O)N[C@@H](CC(=O)O)C(=O)N[C@]1(C)CCN(C)C(=O)OCC=CCCCCC[C@@](C)(C(=O)N[C@@H](C)C(=O)N[C@@H](Cc2ccccc2)C(=O)N[C@@H](Cc2c[nH]c3ccccc23)C(=O)N[C@@H](CCC(N)=O)C(N)=O)NC(=O)[C@H](Cc2ccccc2)NC(=O)[C@H](C)NC(=O)[C@H](C)NC(=O)[C@H](CC(=O)O)NC(=O)[C@H](CC(=O)O)NC(=O)[C@H](C)NC1=O (single isomer, unassigned) [I-49, Ac-Phe-Asp-RdN-Ala-Asp-Asp-Ala-Ala-Phe-S7-Ala-Phe-Trp-Gln-NH2] | 1.18 | –
9 | CC(=O)N[C@@H](Cc1ccccc1)C(=O)N[C@@H](CC(=O)O)C(=O)N[C@]1(C)CCN(C)C(=O)OCC=CCCCCC[C@@](C)(C(=O)N[C@@H](C)C(=O)N[C@@H](Cc2ccccc2)C(=O)N[C@@H](Cc2c[nH]c3ccccc23)C(=O)N[C@@H](CCC(N)=O)C(N)=O)NC(=O)[C@H](Cc2ccccc2)NC(=O)[C@H](C)NC(=O)[C@H](C)NC(=O)[C@H](CC(=O)O)NC(=O)[C@H](CC(=O)O)NC(=O)[C@H](C)NC1=O (single isomer, unassigned) [I-50, Ac-Phe-Asp-RdN-Ala-Asp-Asp-Ala-Ala-Phe-S7-Ala-Phe-Trp-Gln-NH2] | – | 1.201
10 | CC(=O)N[C@@H](Cc1ccccc1)C(=O)N[C@@H](CC(=O)O)C(=O)N[C@@H](C)C(=O)N[C@]1(C)CCCCCCC=CCOC(=O)N2CC[C@@](C(=O)N[C@@H](Cc3ccccc3)C(=O)N[C@@H](Cc3c[nH]c4ccccc34)C(=O)N[C@@H](CCC(N)=O)C(N)=O)(C2)NC(=O)[C@H](C(C)C)NC(=O)[C@H](Cc2ccccc2)NC(=O)[C@H](C)NC(=O)[C@H](C)NC(=O)[C@@](C)(Cc2ccccc2)NC(=O)[C@H](CC(=O)O)NC1=O (single isomer, unassigned) [I-56, Ac-Phe-Asp-Ala-R8-Asp-aMeDF-Ala-Ala-Phe-Val-PyrS-Phe-Trp-Gln-NH2] | 2.16 | –
11 | CC(=O)N[C@@H](Cc1ccccc1)C(=O)N[C@@H](CC(=O)O)C(=O)N[C@@H](C)C(=O)N[C@]1(C)CCCCCCC=CCOC(=O)N2CC[C@@](C(=O)N[C@@H](Cc3ccccc3)C(=O)N[C@@H](Cc3c[nH]c4ccccc34)C(=O)N[C@@H](CCC(N)=O)C(N)=O)(C2)NC(=O)[C@H](C(C)C)NC(=O)[C@H](Cc2ccccc2)NC(=O)[C@H](C)NC(=O)[C@H](C)NC(=O)[C@@](C)(Cc2ccccc2)NC(=O)[C@H](CC(=O)O)NC1=O (single isomer, unassigned) [I-57, Ac-Phe-Asp-Ala-R8-Asp-aMeDF-Ala-Ala-Phe-Val-PyrS-Phe-Trp-Gln-NH2] | – | 2.152
12 | CC(=O)N[C@@H](Cc1ccccc1)C(=O)N[C@@H](CC(=O)O)C(=O)N[C@@H](C)C(=O)N[C@]1(C)CCCCCCC=CCOC(=O)N2CC[C@@](C(=O)N[C@@H](Cc3ccccc3)C(=O)N[C@@H](Cc3c[nH]c4ccccc34)C(=O)N[C@@H](CCC(N)=O)C(N)=O)(C2)NC(=O)[C@H](C(C)C)NC(=O)[C@H](Cc2ccccc2)NC(=O)[C@H](C)NC(=O)[C@H](C)NC(=O)[C@H](CCC(N)=O)NC(=O)[C@H](CC(=O)O)NC1=O (single isomer, unassigned) [I-58, Ac-Phe-Asp-Ala-R8-Asp-Gln-Ala-Ala-Phe-Val-PyrS-Phe-Trp-Gln-NH2] | 1.5 | –
13 | CC(=O)N[C@@H](Cc1ccccc1)C(=O)N[C@@H](CC(=O)O)C(=O)N[C@@H](C)C(=O)N[C@]1(C)CCCCCCC=CCOC(=O)N2CC[C@@](C(=O)N[C@@H](CC3CCCCC3)C(=O)N[C@@H](Cc3c[nH]c4ccccc34)C(=O)N[C@@H](CCC(N)=O)C(N)=O)(C2)NC(=O)[C@H](C(C)C)NC(=O)[C@H](Cc2ccccc2)NC(=O)[C@H](C)NC(=O)[C@H](C)NC(=O)[C@H](CC(=O)O)NC(=O)[C@H](CC(=O)O)NC1=O (single isomer, unassigned) [I-60, Ac-Phe-Asp-Ala-R8-Asp-Asp-Ala-Ala-Phe-Val-PyrS-Cha-Trp-Gln-NH2] | 1.36 | –
14 | CC(=O)N[C@@H](Cc1ccccc1)C(=O)N[C@@H](CC(=O)O)C(=O)N[C@@H](C)C(=O)N[C@]1(C)CCCCCCC=CCOC(=O)N2CC[C@@](C(=O)N[C@@H](Cc3ccc(O)cc3)C(=O)N[C@@H](Cc3c[nH]c4ccccc34)C(=O)N[C@@H](CCC(N)=O)C(N)=O)(C2)NC(=O)[C@H](C(C)C)NC(=O)[C@H](Cc2ccccc2)NC(=O)[C@H](C)NC(=O)[C@H](C)NC(=O)[C@H](CC(=O)O)NC(=O)[C@H](CC(=O)O)NC1=O (single isomer, unassigned) [I-62, Ac-Phe-Asp-Ala-R8-Asp-Asp-Ala-Ala-Phe-Val-PyrS-Tyr-Trp-Gln-NH2] | 0.981 | –
15 | CC(=O)N[C@@H](Cc1ccccc1)C(=O)N[C@@H](CC(=O)O)C(=O)N[C@@H](C)C(=O)N[C@]1(C)CCCCCCC=CCOC(=O)N2CC[C@@](C(=O)N[C@@H](Cc3ccc(O)cc3)C(=O)N[C@@H](Cc3c[nH]c4ccccc34)C(=O)N[C@@H](CCC(N)=O)C(N)=O)(C2)NC(=O)[C@H](C(C)C)NC(=O)[C@H](Cc2ccccc2)NC(=O)[C@H](C)NC(=O)[C@H](C)NC(=O)[C@H](CC(=O)O)NC(=O)[C@H](CC(=O)O)NC1=O (single isomer, unassigned) [I-63, Ac-Phe-Asp-Ala-R8-Asp-Asp-Ala-Ala-Phe-Val-PyrS-Tyr-Trp-Gln-NH2] | – | 1.019
16 | CC[C@H](C)[C@H](NC(=O)[C@H](CC(=O)O)NC(=O)[C@H](C)NC(C)=O)C(=O)N[C@]1(C)CCN(C)C(=O)OCC=CCCCCC[C@@](C)(C(=O)N[C@@H](Cc2ccccc2)C(=O)N[C@@H](Cc2c[nH]c3ccccc23)C(=O)N[C@@H](Cc2c[nH]cn2)C(N)=O)NC(=O)[C@H](CCC(N)=O)NC(=O)[C@H](Cc2ccccc2)NC(=O)[C@H](C)NC(=O)[C@H](C)NC(=O)[C@H](CCC(C)C)NC(=O)[C@H](CC(=O)O)NC1=O (single isomer, unassigned) [I-70, Ac-Ala-Asp-Ile-RdN-Asp-hLeu-Ala-Ala-Phe-Gln-S7-Phe-Trp-His-NH2] | 1.61 | –
